According to patent US12304912B2, “Fused bicyclic RAF inhibitors and methods for use thereof” (Jazz Pharmaceuticals Ireland Limited, priority 2020, dated 2025):
≈ marks a conversion by molar mass, not a printed value. Where two headings read alike, the source gives them in different places.

Assays:
FeSSIF solubility assay = type: physicochemical; settings: fed state simulated intestinal fluid (FeSSIF), thermodynamic from solid, pH 5 acetate buffer, 37° C., read-out: FESSIF Sol
Method in brief: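 FeSSIF (pH 5 acetate buffer, 1 mL) was added to 1.0 mg solid compound and shaken at 650 rpm and 37 °C for 24 h. After filtration, dissolved compound was quantified by LC-UV against a 250 μM calibration standard.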

HCT-116 cells = assay: HCT-116 CellTiter-Glo 3D cell proliferation assay; type: cell-based; settings: Homo sapiens
Method: HCT-116 CellTiter-Glo 3D Cell Proliferation Assay
The human HCT-116 colorectal carcinoma cell line (ATCC CCL-247) endogenously expresses the KRAS^G13D mutation, which leads to enhanced survival and proliferative signaling. […] On the first day, HCT-116 cells were harvested, resuspended in growth medium (McCoys5A with Glutamax (Life Technologies 36600021) with 10% heat-inactivated fetal bovine serum (Sigma F9665)), and counted. Cells were plated in 100 μl per well in each well of a Corning 7007 96-well clear round bottom Ultra-Low Attachment plate (VWR 444-1020) to a final density of 1000 cells per well. Cells were seeded for pre- and post-treatment readouts. The cells were then incubated at 37° C. and 5% CO2 for 3 days (72 hours) to allow spheroid formation. After 72 hours, the plate seeded for a pre-treatment read was removed from the incubator to allow equilibration to room temperature for 30 minutes, before CellTitre-Glo® reagent was added to each well. The plates were incubated at room temperature for 5 minutes shaking at 300 rpm, followed by an incubation of 25 minutes on the benchtop before being read on the Envision reader (Perkin Elmer) as described below. On the same day, the cells plated for the post-treatment readout were dosed with compounds to produce a 9-point dose response, where the top concentration was 15 μM and following concentrations were at 1/2 log dilution intervals. These cells were subsequently incubated at 37° C. and 5% CO2 for another 4 days (96 hours). After 4 days, the plate was removed from the incubator to allow equilibration to room temperature for 30 minutes and treated with CellTitre Glo® reagent as stated above. […] The CellTitre Glo® reagent lyses the cells and contains luciferin and a luciferase (Ultra-Glo™ Recombinant Luciferase), which in the presence of ATP and oxygen can produce bioluminescence from luciferin. Therefore, plates were read on an EnVision reader (Perkin Elmer) and luminescence signals were recorded. Cell proliferation was determined on 4 days after dosing relative to the pre-treatment read. All data were analyzed using the Dotmatics or GraphPad Prism software packages. Inhibition of proliferation was assessed by determination of the GI50 value, which was defined as the concentration of compound required to decrease the level of cell proliferation by 50% when compared to DMSO control.

[1] = HCT-116, HCT116 cells, 3D proliferation, read-out: 3D HCT116 pGI50 (converted)

SMILES | solubility thermodynamic at 24 h (FeSSIF solubility assay) [µg/mL] | GI50 (HCT-116 cells; [1]) [nM] | GI50 (HCT-116 cells; HCT-116, read-out: 3D HCT116 pGI50 (converted)) [nM]
O=C1CCc2c(Oc3ccc4c(c3)CC(c3nc(-c5cncc(C(F)F)c5)c[nH]3)CO4)ccnc2N1 (stereo not drawn) [Compound 105, 5-[3-[4-[5-(difluoromethyl)-3-pyridyl]-1H-imidazol-2-yl]chroman-6-yl]oxy-3,4-dihydro-1H-1,8-naphthyridin-2-one] | 8.6 (≈ 17.6 µM) | 245 | 
Cc1cc(-c2c[nH]c(C3COc4ccc(Oc5ccnc6c5CCC(=O)N6)cc4C3)n2)n(C)n1 (stereo not drawn) [Compound 106, 5-[3-[4-(2,5-dimethylpyrazol-3-yl)-1H-imidazol-2-yl]chroman-6-yl]oxy-3,4-dihydro-1H-1,8-naphthyridin-2-one] | 28.1 (≈ 61.6 µM) | 437 | 
Cc1ccc(-c2c[nH]c(C3COc4ccc(Oc5ccnc6c5CCC(=O)N6)cc4C3)n2)s1 (stereo not drawn) [Compound 110] | 8.5 (≈ 18.5 µM) | 70.8 | 
CCc1cc(-c2c[nH]c(C3COc4ccc(Oc5ccnc6c5CCC(=O)N6)cc4C3)n2)n(C)n1 (stereo not drawn) [Compound 111] | 70 (≈ 149 µM) | 316 | 
CC(C)(C)CCc1c[nH]c(C2COc3ccc(Oc4ccnc5c4CCC(=O)N5)cc3C2)n1 (stereo not drawn) [Compound 115, 5-[3-[4-(3,3-dimethylbutyl)-1H-imidazol-2-yl]chroman-6-yl]oxy-3,4-dihydro-1H-1,8-naphthyridin-2-one] | 129 (≈ 289 µM) | 67.6 | 
CC(C)CCc1c[nH]c(C2COc3ccc(Oc4ccnc5c4CCC(=O)N5)cc3C2)n1 (stereo not drawn) [Compound 116] | 311 (≈ 720 µM) | 66.1 | 
Cc1cc(-c2c[nH]c(C3COc4ccc(Oc5ccnc6c5CCC(=O)N6)cc4C3)n2)ccn1 (stereo not drawn) [Compound 117, 5-[3-[4-(2-methyl-4-pyridyl)-1H-imidazol-2-yl]chroman-6-yl]oxy-3,4-dihydro-1H-1,8-naphthyridin-2-one] | 1.4 (≈ 3.09 µM) | 214 | 
COc1csc(-c2c[nH]c(C3COc4ccc(Oc5ccnc6c5CCC(=O)N6)cc4C3)n2)c1 (stereo not drawn) [Compound 122, 5-[3-[5-(4-methoxy-2-thienyl)-1H-imidazol-2-yl]chroman-6-yl]oxy-3,4-dihydro-1H-1,8-naphthyridin-2-one] | 124 (≈ 260 µM) | 182 | 
COc1ccsc1-c1c[nH]c(C2COc3ccc(Oc4ccnc5c4CCC(=O)N5)cc3C2)n1 (stereo not drawn) [Compound 123] | 156 (≈ 330 µM) | 40.7 | 
CCn1nc(C)cc1-c1c[nH]c(C2COc3ccc(Oc4ccnc5c4CCC(=O)N5)cc3C2)n1 (stereo not drawn) [Compound 124, 5-[3-[4-(2-ethyl-5-methyl-pyrazol-3-yl)-1H-imidazol-2-yl]chroman-6-yl]oxy-3,4-dihydro-1H-1,8-naphthyridin-2-one] | 3 (≈ 6.38 µM) | 724 | 
Cn1nc(C2CC2)cc1-c1c[nH]c(C2COc3ccc(Oc4ccnc5c4CCC(=O)N5)cc3C2)n1 (stereo not drawn) [Compound 125, 5-[3-[4-(5-cyclopropyl-2-methyl-pyrazol-3-yl)-1H-imidazol-2-yl]chroman-6-yl]oxy-3,4-dihydro-1H-1,8-naphthyridin-2-one] | 22 (≈ 45.6 µM) | 1120 | 
O=C1CCc2c(Oc3ccc4c(c3)CC(c3nc(C5CCOCC5)c[nH]3)CO4)ccnc2N1 (stereo not drawn) [Compound 132, 5-[3-(4-tetrahydropyran-4-yl-1H-imidazol-2-yl)chroman-6-yl]oxy-3,4-dihydro-1H-1,8-naphthyridin-2-one] | 41.9 (≈ 93.8 µM) | 661 | 
O=C(Nc1cc(Oc2ccc3c(c2)CC(c2nc(-c4ccccc4)c[nH]2)CO3)ccn1)C1CC1(F)F (stereo not drawn) [Compound 137, 2,2-difluoro-N-[4-[3-(4-phenyl-1H-imidazol-2-yl)chroman-6-yl]oxy-2-pyridyl]cyclopropanecarboxamide] | 73.9 (≈ 151 µM) | 70.8 | 
Cc1c[nH]c(-c2cc(Oc3ccc4c(c3)CC(c3nc(-c5ccccc5)c[nH]3)CO4)ccn2)n1 (stereo not drawn) [Compound 143, 2-(4-methyl-1H-imidazol-2-yl)-4-[3-(4-phenyl-1H-imidazol-2-yl)chroman-6-yl]oxy-pyridine] | 44.7 (≈ 99.4 µM) | 741 | 
O=C(Cn1ccnc1)Nc1cc(Oc2ccc3c(c2)CC(c2nc(-c4ccccc4)c[nH]2)CO3)ccn1 (stereo not drawn) [Compound 144] | 318 (≈ 645 µM) | 100 | 
CN1CCN(CC(=O)Nc2cc(Oc3ccc4c(c3)CC(c3nc(-c5ccccc5)c[nH]3)CO4)ccn2)CC1 (stereo not drawn) [Compound 146, 2-(4-methylpiperazin-1-yl)-N-[4-[3-(4-phenyl-1H-imidazol-2-yl)chroman-6-yl]oxy-2-pyridyl]acetamide] | 404 (≈ 770 µM) | 380 | 
CN1CCC(C(=O)Nc2cc(Oc3ccc4c(c3)CC(c3nc(-c5ccccc5)c[nH]3)CO4)ccn2)CC1 (stereo not drawn) [Compound 147, 1-methyl-N-[4-[3-(4-phenyl-1H-imidazol-2-yl)chroman-6-yl]oxy-2-pyridyl]piperidine-4-carboxamide] | 528 (≈ 1040 µM) | 1380 | 
O=C(Nc1nccc(Oc2ccc3c(c2)CC(c2nc(-c4ccccc4)c[nH]2)CO3)n1)C1CC1 (stereo not drawn) [Compound 148, N-[4-[3-(4-phenyl-1H-imidazol-2-yl)chroman-6-yl]oxypyrimidin-2-yl]cyclopropanecarboxamide] | 104 (≈ 230 µM) | 490 | 
O=C(CN1CCOCC1)Nc1cc(Oc2ccc3c(c2)CC(c2nc(-c4ccccc4)c[nH]2)CO3)ccn1 (stereo not drawn) [Compound 149] | 200 (≈ 391 µM) | 851 | 
O=C(Nc1cc(Oc2ccc3c(c2)CC(c2nc(-c4ccccc4)c[nH]2)CO3)ncn1)C1CC1 (stereo not drawn) [Compound 151, N-[6-[3-(4-phenyl-1H-imidazol-2-yl)chroman-6-yl]oxypyrimidin-4-yl]cyclopropanecarboxamide] | 86.6 (≈ 191 µM) |  | 380
O=C(CN1CCCC1)Nc1cc(Oc2ccc3c(c2)CC(c2nc(-c4ccccc4)c[nH]2)CO3)ccn1 (stereo not drawn) [Compound 152] | 997 (≈ 2010 µM) | 832 | 
O=C(CN1CC(O)C1)Nc1cc(Oc2ccc3c(c2)CC(c2nc(-c4ccccc4)c[nH]2)CO3)ccn1 (stereo not drawn) [Compound 153] | 336 (≈ 675 µM) | 427 | 
O=C(Cn1cncn1)Nc1cc(Oc2ccc3c(c2)CC(c2nc(-c4ccccc4)c[nH]2)CO3)ccn1 (stereo not drawn) [Compound 154] | 171 (≈ 346 µM) | 61.7 | 
O=C(Nc1cc(Oc2ccc3c(c2)CC(c2nc(-c4ccc(F)cc4)c[nH]2)CO3)ccn1)C1CC1 (stereo not drawn) [Compound 155, N-[4-[3-[4-(4-fluorophenyl)-1H-imidazol-2-yl]chroman-6-yl]oxy-2-pyridyl]cyclopropanecarboxamide] | 124 (≈ 263 µM) | 100 | 
CC(=O)Nc1cc(Oc2ccc3c(c2)CC(c2nc(-c4ccccc4)c[nH]2)CO3)ccn1 (stereo not drawn) [Compound 156, N-[4-[3-(4-phenyl-1H-imidazol-2-yl)chroman-6-yl]oxy-2-pyridyl]acetamide] | 296 (≈ 695 µM) | 89.1 | 
CC1CC1C(=O)Nc1cc(Oc2ccc3c(c2)CC(c2nc(-c4ccccc4)c[nH]2)CO3)ccn1 (stereo not drawn) [Compound 157] | 116 (≈ 249 µM) | 263 | 
O=C1CCc2c(Oc3ccc4c(c3)CN(c3nc5cc(C(F)(F)F)ccc5[nH]3)CC4)ccnc2N1 [Compound 160] | 3 (≈ 6.26 µM) | 617 | 
